According to patent US20250313544A1, “INHIBITORS OF GLUTATHIONE S-TRANSFERASE ZETA 1 (GSTZ1) AND METHODS OF USE” (H. LEE MOFFITT CANCER CENTER AND RESEARCH INSTITUTE, INC., priority 2022, published 2025):

Key:
[1] = tested on: HCC366 cells harboring mutated DDR2; experiment: Cell viability assay (CellTiter-Glo) in HCC366 cells; assay type: cell-based, human; details: probe combined with dasatinib in HCC366 cells, dose of 10 μM (FIG. 9F)
Procedure: Cells were seeded in Corning 384-well black walled/clear bottom microplates with a density of 1,000 cells/well and treated with indicated drugs and concentrations following cell attachment for 24 h. After 72 h or 96 h, as indicated, cell viability was evaluated with CellTiter-Glo (Promega, Madison, WI) according to manufacturer's recommendations. An M5 Spectramax plate reader (Molecular devices) was used to read the plates with 500 ms integration. Data was processed and analyzed using Excel and GraphPad Prism 9.0.

GSTZ1 = biological target: T1, GSTZ1 (Homo sapiens, UniProt O43708); experiment: GSTZ1 pulldown and competition after photocrosslinking in live H1792 cells (biotin enrichment, immunoblotting); assay type: binding; design: endogenous in cells; host or cells: H1792 cells; details: UV crosslinking
T1 sequence (O43708 1-216): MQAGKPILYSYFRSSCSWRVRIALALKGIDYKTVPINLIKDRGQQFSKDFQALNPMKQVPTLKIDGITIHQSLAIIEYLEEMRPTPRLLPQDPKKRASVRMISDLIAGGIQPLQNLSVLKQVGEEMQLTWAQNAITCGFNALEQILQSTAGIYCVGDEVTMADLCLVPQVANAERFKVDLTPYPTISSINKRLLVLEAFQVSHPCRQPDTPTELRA
Procedure: Cells were harvested and washed with PBS and lysed in RIPA buffer (150 mM NaCl, 50 mM Tris-HCl, pH 7.4, 5 mM EDTA, 1% NP40, 0.1% SDS) containing complete protease inhibitor cocktail (Roche, 11873580001) and phosphatase inhibitor cocktail 2 (Sigma, P5726) for 30 min on ice. The Coomassie Plus (Bradford) protein assay (23236, ThermoFisher, MA) was conducted for measuring concentrations of resulting supernatants. Samples were prepared by adding 4× Laemmli sample buffer and heat-denaturing for 5 minutes. All samples or total cell lysates were resolved by SDS-PAGE and then transferred onto PVDF membranes. 5% non-fat milk was utilized for blocking of non-specific binding. Blots were incubated with primary antibodies overnight at 4° C. For immunoblotting, primary antibodies were purchased from Cell Signaling: PARP1 (#9542), cleaved caspase-3 (#9661), Phospho-tyrosine Mouse mAb (P-Tyr-100, #9411), FGFR1 (#9740). GAPDH (#60004-1-Ig) and GSTZ1 (#14889-1-AP) were purchased from Proteintech. […] Densitometry was analyzed using Image Studio Lite Ver 5.2.
Cells were grown in 10 cm dishes to ˜90% confluence at the time of treatment. […] Protein concentrations were determined using Bradford assays. […]

SMILES: C#CCCC1(CCC(=O)N2CCC(COc3nc4ccccc4nc3C)CC2)N=N1 [Probe 17, 3-(3-(but-3-yn-1-yl)-3H-diazirin-3-yl)-1-(4-(((3-methylquinoxalin-2-yl)oxy)methyl)piperidin-1-yl)propan-1-one]
- sensitization of cells towards dasatinib [1]: significantly enhanced the sensitivity
- GSTZ1 enrichment by probe (affinity enrichment, immunoblotting with GSTZ1 antibody) (GSTZ1): specifically enriched
